# Laboratory results as given in the supplement of paper PMC10307832.
# Experiments:
# Test in all cases: relative viability (nuclei count vs DMSO), 5 days (fraction); higher = more cells survive
# Gemcitabine + Bortezomib = compound: Nc1ccn([C@@H]2O[C@H](CO)[C@@H](O)C2(F)F)c(=O)n1 [Gemcitabine] + CC(C)C[C@H](NC(=O)[C@H](Cc1ccccc1)NC(=O)c1cnccn1)B(O)O [Bortezomib] (partner 0.002 µM)
# Procedure, shortened: (§1)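 Relative viability equals treated-well nuclei counts divided by vehicle-well nuclei counts. Counts came from 4× images of lung cancer cell lines grown in 1536-well plates for 5 days after pin-tool dosing on the day after seeding. Dosing used one drug alone or a fixed anchor-drug dose plus five library-drug doses (not always all listed) in √10 steps, and values are medians of duplicate plates.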
# Gemcitabine + Tozasertib = compound: Nc1ccn([C@@H]2O[C@H](CO)[C@@H](O)C2(F)F)c(=O)n1 [Gemcitabine] + Cc1cc(Nc2cc(N3CCN(C)CC3)nc(Sc3ccc(NC(=O)C4CC4)cc3)n2)n[nH]1 [Tozasertib] (partner 0.1 µM)
# Procedure, shortened: as §1
# Gemcitabine + AZD7762 = compound: Nc1ccn([C@@H]2O[C@H](CO)[C@@H](O)C2(F)F)c(=O)n1 [Gemcitabine] + NC(=O)Nc1cc(-c2cccc(F)c2)sc1C(=O)N[C@H]1CCCNC1 [AZD7762] (partner 0.2 µM)
# Procedure, shortened: as §1
# Gemcitabine + Decitabine = compound: Nc1ccn([C@@H]2O[C@H](CO)[C@@H](O)C2(F)F)c(=O)n1 [Gemcitabine] + Nc1ncn([C@H]2C[C@H](O)[C@@H](CO)O2)c(=O)n1 [Decitabine] (partner 2 µM)
# Procedure, shortened: as §1
Cell Line,relative viability (Gemcitabine + Bortezomib; first compound 0.001 µM),relative viability (Gemcitabine + Bortezomib; first compound 0.003162 µM),relative viability (Gemcitabine + Bortezomib; first compound 0.01 µM),relative viability (Gemcitabine + Bortezomib; first compound 0.03162 µM),relative viability (Gemcitabine + Bortezomib; first compound 0.1 µM),relative viability (Gemcitabine + Tozasertib; first compound 0.001 µM),relative viability (Gemcitabine + Tozasertib; first compound 0.003162 µM),relative viability (Gemcitabine + Tozasertib; first compound 0.01 µM),relative viability (Gemcitabine + Tozasertib; first compound 0.03162 µM),relative viability (Gemcitabine + Tozasertib; first compound 0.1 µM),relative viability (Gemcitabine + AZD7762; first compound 0.001 µM),relative viability (Gemcitabine + AZD7762; first compound 0.003162 µM),relative viability (Gemcitabine + AZD7762; first compound 0.01 µM),relative viability (Gemcitabine + AZD7762; first compound 0.03162 µM),relative viability (Gemcitabine + AZD7762; first compound 0.1 µM),relative viability (Gemcitabine + Decitabine; first compound 0.001 µM),relative viability (Gemcitabine + Decitabine; first compound 0.003162 µM),relative viability (Gemcitabine + Decitabine; first compound 0.01 µM),relative viability (Gemcitabine + Decitabine; first compound 0.03162 µM),relative viability (Gemcitabine + Decitabine; first compound 0.1 µM)
HOP-62,0.506,0.39,0.209,0.0446,0.0459,0.392,0.285,0.0943,0.0841,0.0623,0.287,0.08,0.0514,0.0757,0.0617,0.253,0.172,0.16,0.0888,0.121
LU99A,1.14,1.18,1,1.25,1.18,0.26,0.322,0.294,0.327,0.265,0.437,0.41,0.332,0.367,0.299,0.789,1.03,0.816,0.985,0.836
NCI-H647,0.783,0.224,0.0897,0.0721,0.0698,0.395,0.098,0.0474,0.0387,0.0371,0.098,0.0427,0.0235,0.0216,0.0238,0.308,0.257,0.151,0.104,0.0673
A-427,0.99,0.996,0.68,0.225,0.139,0.189,0.19,0.135,0.13,0.121,0.472,0.302,0.174,0.188,0.146,0.629,0.546,0.463,0.342,0.273
NCI-H441,0.642,0.327,0.116,0.14,0.139,0.569,0.394,0.25,0.196,0.197,0.603,0.134,0.11,0.165,0.128,0.208,0.212,0.17,0.167,0.127
NCI-H2126,1.05,1.1,1.04,0.985,0.67,0.866,0.802,0.756,0.471,0.245,0.995,1.03,0.891,0.265,0.205,0.604,0.546,0.546,0.423,0.299
HCC-44,0.895,0.874,0.701,0.393,0.131,1.05,0.918,0.774,0.194,0.162,0.971,1.03,0.942,0.226,0.271,0.936,0.918,0.901,0.845,0.738
NCI-H460,1.24,1.09,0.419,0.0106,0.0083,0.535,,0.299,0.0246,0.0096,0.831,0.48,0.0469,0.026,0.0247,0.475,0.451,0.417,0.0447,0.0204
NCI-H322M,1.35,0.439,0.334,0.291,0.234,0.459,0.407,0.288,0.316,0.283,0.458,0.382,0.356,0.423,0.419,0.607,0.445,0.41,0.457,0.388
EKVX,0.995,1.07,0.461,0.18,0.142,0.456,0.376,0.257,0.12,0.106,0.49,0.466,0.142,0.147,0.139,0.3,0.256,0.18,0.193,0.14
NCI-H1734,1.08,0.862,0.199,0.157,0.102,0.243,0.264,0.125,0.104,0.105,0.153,0.118,0.0866,0.113,0.0969,0.536,0.343,0.192,0.134,0.102
ABC-1,0.344,0.313,0.372,0.233,0.239,0.185,,0.159,0.188,0.187,0.748,0.757,0.964,0.295,0.304,,0.798,1.07,0.497,0.436
EPLC-272H,0.87,0.786,0.419,0.358,0.121,0.291,0.295,0.249,0.0772,0.0692,0.19,0.141,0.0918,0.101,0.0686,0.389,0.353,0.305,0.224,0.0962
NCI-H1993,1.08,1.15,0.713,0.524,0.446,0.54,0.633,0.619,0.494,0.531,0.74,0.483,0.398,0.439,0.346,0.549,0.524,0.564,0.44,0.356
NCI-H596,1,1.11,0.555,0.349,0.41,0.922,0.589,0.391,0.306,0.223,1.24,0.717,0.275,0.319,0.235,1.15,0.973,0.763,0.449,0.466
